The results in this text go back to patent US20240238358A1, “TRADITIONAL CHINESE MEDICINE COMPOSITION FOR INFECTIOUS DISEASE RECOVERY AND USE THEREOF” (CHINA RESOURCES SANJIU MEDICAL & PHARMACEUTICAL CO., LTD., priority 2021, published 2024).

This test relates to ARE luciferase activity of 293T cells. Put plainly: ARE luciferase reporter gene activity in transfected 293T cells (dual-luciferase, anti-oxidation activity). The format is cell-based. Conditions: tBHQ 10 μM, 6 h, n = 18, control = 1 ± 0.19, relative luciferase activity. The method, then:
The 293T cells in the logarithmic growth phase were inoculated in a 96-well cell culture plate at a density of 2×10^5 cells/mL. After the growth density of the cells reached 70%-80%, the ARE and NF-kB luciferase reporter plasmids pGL4.37 and pGL4.32 (100 ng/well) and the […] luciferase reporter plasmid pGL4.75 (10 ng/well) were simultaneously transfected using the PEI (1 mg/mL) transfection reagent and then cultured for 24 h. After 24 h of culture, cells transfected with the ARE luciferase reporter plasmid pGL4.37 were added to tBHQ (10 μM) and each of the sample solutions of the traditional Chinese compositions of the present disclosure with safe concentrations, respectively, a control group was set, and the cells were cultured for 6 h; cells transfected with the NF-kB luciferase reporter plasmid pGL4.32 were added to TNF-α (10 ng/mL)-dexamethasone (10 μM) diluted with a complete medium and each of the sample solutions of the traditional Chinese compositions of the present disclosure with safe concentrations, respectively, a control group and a model group (10 ng/mL TNF-a) were set, and the cells were cultured for 6 h. The supernatant was discarded, the cells were rinsed with PBS, and after the cells were lysed, the cells were detected by a dual-luciferase detection system. Six duplicate wells were set for each experiment, and each experiment was repeated three times. […]
In general terms: Reporter assays use an easily measured gene product as a stand-in for the process of interest.

Molecules are shown by their SMILES.

Turning to `CC(C)(C)c1cc(O)ccc1O` [tBHQ, tertiary butylhydroquinone], the “ARE luciferase activity of 293T cells (x ± SD)” value came to 6.82 ± 1.28.
